Measured values published in publication PMC7955893 (Journal of medicinal chemistry, 2019).
Values belong to the compound of their own block, whether it stands above or below them.

What was measured:
[1] = tested on: MNAM levels in U2OS cells; assay: MNAM measurement in U2OS cells by LC-MS/MS; assay type: cell-based, human; settings: 24 h incubation
U2OS cells = assay: CellTiter-Glo luminescent cell viability; assay type: cell-based, human; settings: 48 h, 100 μM dose
Caco-2 = assay: A-B permeability testing; settings: Caco-2, pH 6.5/7.4
NNMT [2] = biological target: T1, NNMT (Homo sapiens, UniProt P40261); assay: Cellular thermal shift assay; assay type: binding; settings: K562 cell lysate; various concentrations; heated at 57 °C
T1 sequence (P40261 1-264): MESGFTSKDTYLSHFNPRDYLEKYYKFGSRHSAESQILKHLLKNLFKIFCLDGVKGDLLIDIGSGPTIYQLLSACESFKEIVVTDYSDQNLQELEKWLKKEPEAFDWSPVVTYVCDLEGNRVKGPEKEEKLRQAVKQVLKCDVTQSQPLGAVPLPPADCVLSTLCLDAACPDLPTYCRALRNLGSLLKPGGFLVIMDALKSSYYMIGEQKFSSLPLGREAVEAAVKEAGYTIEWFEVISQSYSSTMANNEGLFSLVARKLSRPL

NNMT [3] = biological target: T1, NNMT; assay: Fluorescence-based continuous NNMT inhibition assay; assay type: biochemical; settings: for NNMT inhibition (in words): qualitative SAR statement

isothermal dose response CETSA, stabilization of NNMT (in words) (NNMT [2]): dose-dependent manner
Compound: NC(=O)NCC[C@H](C#Cc1cccc(C(N)=O)c1)C[C@H]1O[C@@H](n2cnc3c(N)ncnc32)[C@H](O)[C@@H]1O [compound 25, 3-((S)-3-(((2R,3S,4R,5R)-5-(6-amino-9H-purin-9-yl)-3,4-dihydroxytetrahydrofuran-2-yl)methyl)-5-ureidopent-1-yn-1-yl)benzamide]
ability to decrease MNAM levels in U2OS cells (in words) [1]: the effects were modest | cytotoxicity to U2OS cells (in words) (U2OS cells): None of the compounds tested (NS1, 21, 23, 24, 25) were toxic

fold increase in inhibitory activity in terms of Ki compared to NS1 (NNMT [3]; relative to NS1): ~ 2 fold
Compound: NC(=O)c1cccc(C#C[C@@H](CCC[C@H](N)C(=O)O)C[C@H]2O[C@@H](n3cnc4c(N)ncnc43)[C@H](O)[C@@H]2O)c1 [compound 26, (2S,6S)-2-amino-6-(((2R,3S,4R,5R)-5-(6-amino-9H-purin-9-yl)-3,4-dihydroxytetrahydrofuran-2-yl)methyl)-8-(3-carbamoylphenyl)oct-7-ynoic acid]

NNMT inhibition (in words) (NNMT [3]): much less potent than NS1
Compound: NC(=O)c1ccc(C#C[C@@H](CC[C@H](N)C(=O)O)C[C@H]2O[C@@H](n3cnc4c(N)ncnc43)[C@H](O)[C@@H]2O)cc1 [compound 27, (2S,5S)-2-amino-5-(((2R,3S,4R,5R)-5-(6-amino-9H-purin-9-yl)-3,4-dihydroxytetrahydrofuran-2-yl)methyl)-7-(4-carbamoylphenyl)hept-6-ynoic acid]

NNMT inhibition (in words) (NNMT [3]): much less potent than NS1
Compound: NC(=O)c1ccccc1C#C[C@@H](CC[C@H](N)C(=O)O)C[C@H]1O[C@@H](n2cnc3c(N)ncnc32)[C@H](O)[C@@H]1O [compound 28, (2S,5S)-2-amino-5-(((2R,3S,4R,5R)-5-(6-amino-9H-purin-9-yl)-3,4-dihydroxytetrahydrofuran-2-yl)methyl)-7-(2-carbamoylphenyl)hept-6-ynoic acid]

NNMT inhibition (in words) (NNMT [3]): much less potent than NS1
Compound: Nc1ncnc2c1ncn2[C@@H]1O[C@H](C[C@@H](C#Cc2cccc(S(N)(=O)=O)c2)CC[C@H](N)C(=O)O)[C@@H](O)[C@H]1O [compound 29, (2S,5S)-2-amino-5-(((2R,3S,4R,5R)-5-(6-amino-9H-purin-9-yl)-3,4-dihydroxytetrahydrofuran-2-yl)methyl)-7-(3-sulfamoylphenyl)hept-6-ynoic acid]

NNMT inhibition (in words) (NNMT [3]): moderate NNMT inhibitors
Compound: Nc1ncnc2c1ncn2[C@@H]1O[C@H](C[C@@H](C#Cc2ccc3c(c2)C(=O)NCC3)CC[C@H](N)C(=O)O)[C@@H](O)[C@H]1O [compound 34, (2S,5S)-2-amino-5-(((2R,3S,4R,5R)-5-(6-amino-9H-purin-9-yl)-3,4-dihydroxytetrahydrofuran-2-yl)methyl)-7-(1-oxo-1,2,3,4-tetrahydroisoquinolin-7-yl)hept-6-ynoic acid]

NNMT inhibition (in words) (NNMT [3]): moderate NNMT inhibitors
Compound: Nc1ncnc2c1ncn2[C@@H]1O[C@H](C[C@@H](C#Cc2ccc3c(c2)C(=O)NC3)CC[C@H](N)C(=O)O)[C@@H](O)[C@H]1O [compound 35, (2S,5S)-2-amino-5-(((2R,3S,4R,5R)-5-(6-amino-9H-purin-9-yl)-3,4-dihydroxytetrahydrofuran-2-yl)methyl)-7-(3-oxoisoindolin-5-yl)hept-6-ynoic acid]

More lines, now with the values behind:

Compound: NC(=O)c1cccc(C#C[C@@H](CC[C@H](N)C(=O)O)C[C@H]2O[C@@H](n3cnc4c(N)ncnc43)[C@H](O)[C@@H]2O)c1 [NS1, (2S,5S)-2-amino-5-(((2R,3S,4R,5R)-5-(6-amino-9H-purin-9-yl)-3,4-dihydroxytetrahydrofuran-2-yl)methyl)-7-(3-carbamoylphenyl)hept-6-ynoic acid]
ability to decrease MNAM levels in U2OS cells (in words) [1]: the effects were modest | cytotoxicity to U2OS cells (in words) (U2OS cells): None of the compounds tested (NS1, 21, 23, 24, 25) were toxic | A-B permeability (in words) (Caco-2): limited permeability | isothermal dose response CETSA, stabilization of NNMT (in words) (NNMT [2]): dose-dependent manner

Compound: Nc1ncnc2c1ncn2[C@@H]1O[C@H](CCCC[C@H](N)C(=O)O)[C@@H](O)[C@H]1O [compound 11, (S)-2-amino-6-((2R,3S,4R,5R)-5-(6-amino-9H-purin-9-yl)-3,4-dihydroxytetrahydrofuran-2-yl)hexanoic acid]
NNMT inhibition (in words) (NNMT [3]): poor NNMT inhibitor

Compound: C#C[C@@H](CC[C@H](N)C(=O)O)C[C@H]1O[C@@H](n2cnc3c(N)ncnc32)[C@H](O)[C@@H]1O [compound 12, (2S,5S)-2-amino-5-(((2R,3S,4R,5R)-5-(6-amino-9H-purin-9-yl)-3,4-dihydroxytetrahydrofuran-2-yl)methyl)hept-6-ynoic acid]
NNMT inhibition (in words) (NNMT [3]): equally poor NNMT inhibitors

Compound: Nc1ncnc2c1ncn2[C@@H]1O[C@H](C[C@@H](C#Cc2ccccc2)CC[C@H](N)C(=O)O)[C@@H](O)[C@H]1O [compound 13, (2S,5S)-2-amino-5-(((2R,3S,4R,5R)-5-(6-amino-9H-purin-9-yl)-3,4-dihydroxytetrahydrofuran-2-yl)methyl)-7-phenylhept-6-ynoic acid]
NNMT inhibition (in words) (NNMT [3]): equally poor NNMT inhibitors

Compound: NC(=O)c1cccc(CC[C@@H](CC[C@H](N)C(=O)O)C[C@H]2O[C@@H](n3cnc4c(N)ncnc43)[C@H](O)[C@@H]2O)c1 [compound 15, (2S,5S)-2-amino-5-(((2R,3S,4R,5R)-5-(6-amino-9H-purin-9-yl)-3,4-dihydroxytetrahydrofuran-2-yl)methyl)-7-(3-carbamoylphenyl)heptanoic acid]
fold more potent than MS2756 in terms of Ki (NNMT [3]; relative to MS2756): approximately 200 fold | fold weaker inhibitor than NS1 in terms of Ki (NNMT [3]; relative to NS1): ~10 fold

Compound: NC(=O)c1cccc(CC[C@H](CC[C@H](N)C(=O)O)C[C@H]2O[C@@H](n3cnc4c(N)ncnc43)[C@H](O)[C@@H]2O)c1 [compound 16, (2S,5R)-2-amino-5-(((2R,3S,4R,5R)-5-(6-amino-9H-purin-9-yl)-3,4-dihydroxytetrahydrofuran-2-yl)methyl)-7-(3-carbamoylphenyl)heptanoic acid]
fold difference in Ki between NS1-alkane and its C6’ epimer (NNMT [3]; relative to NS1-alkane (15)): ~ 20 fold

Compound: NC(=O)c1cccc(C#CCC[C@H]2O[C@@H](n3cnc4c(N)ncnc43)[C@H](O)[C@@H]2O)c1 [compound 17, 3-(4-((2R,3S,4R,5R)-5-(6-amino-9H-purin-9-yl)-3,4-dihydroxytetrahydrofuran-2-yl)but-1-yn-1-yl)benzamide]
fold weaker inhibitor than NS1 in terms of Ki (NNMT [3]; relative to NS1): ~ 500 fold

Compound: NC(=O)c1cccc(C#C[C@@H]2C[C@H]2[C@H]2O[C@@H](n3cnc4c(N)ncnc43)[C@H](O)[C@@H]2O)c1 [compound 18, 3-(((1R,2R)-2-((2R,3S,4R,5R)-5-(6-amino-9H-purin-9-yl)-3,4-dihydroxytetrahydrofuran-2-yl)cyclopropyl)ethynyl)benzamide]
NNMT inhibition (in words) (NNMT [3]): proved detrimental

Compound: CO[C@@H]1O[C@H](C[C@@H](C#Cc2cccc(C(N)=O)c2)CC[C@H](N)C(=O)O)[C@@H](O)[C@H]1O [compound 19, (2S,5S)-2-amino-7-(3-carbamoylphenyl)-5-(((2R,3S,4R,5R)-3,4-dihydroxy-5-methoxytetrahydrofuran-2-yl)methyl)hept-6-ynoic acid]
NNMT inhibition (in words) (NNMT [3]): completely abrogated NNMT inhibition

Compound: NC(=O)c1cccc(C#C[C@@H](CCCC(=O)O)C[C@H]2O[C@@H](n3cnc4c(N)ncnc43)[C@H](O)[C@@H]2O)c1 [compound 20, (S)-5-(((2R,3S,4R,5R)-5-(6-amino-9H-purin-9-yl)-3,4-dihydroxytetrahydrofuran-2-yl)methyl)-7-(3-carbamoylphenyl)hept-6-ynoic acid]
NNMT inhibition (in words) (NNMT [3]): poor NNMT inhibitor

Compound: NCCC[C@H](C#Cc1cccc(C(N)=O)c1)C[C@H]1O[C@@H](n2cnc3c(N)ncnc32)[C@H](O)[C@@H]1O [compound 21, 3-((S)-6-amino-3-(((2R,3S,4R,5R)-5-(6-amino-9H-purin-9-yl)-3,4-dihydroxytetrahydrofuran-2-yl)methyl)hex-1-yn-1-yl)benzamide]
ability to decrease MNAM levels in U2OS cells (in words) [1]: the effects were modest | cytotoxicity to U2OS cells (in words) (U2OS cells): None of the compounds tested (NS1, 21, 23, 24, 25) were toxic

Compound: COC(=O)[C@@H](N)CC[C@H](C#Cc1cccc(C(N)=O)c1)C[C@H]1O[C@@H](n2cnc3c(N)ncnc32)[C@H](O)[C@@H]1O [compound 23, Methyl (2S,5S)-2-amino-5-(((2R,3S,4R,5R)-5-(6-amino-9H-purin-9-yl)-3,4-dihydroxytetrahydrofuran-2-yl)methyl)-7-(3-carbamoylphenyl)hept-6-ynoate]
ability to decrease MNAM levels in U2OS cells (in words) [1]: the effects were modest | cytotoxicity to U2OS cells (in words) (U2OS cells): None of the compounds tested (NS1, 21, 23, 24, 25) were toxic

Compound: NC(=O)c1cccc(C#C[C@@H](CC[C@H](N)C(N)=O)C[C@H]2O[C@@H](n3cnc4c(N)ncnc43)[C@H](O)[C@@H]2O)c1 [compound 24, 3-((3S,6S)-6,7-diamino-3-(((2R,3S,4R,5R)-5-(6-amino-9H-purin-9-yl)-3,4-dihydroxytetrahydrofuran-2-yl)methyl)-7-oxohept-1-yn-1-yl)benzamide]
ability to decrease MNAM levels in U2OS cells (in words) [1]: the effects were modest | cytotoxicity to U2OS cells (in words) (U2OS cells): None of the compounds tested (NS1, 21, 23, 24, 25) were toxic
